Key:
C. albicans = test: Candidiasis in immunosuppressed C. albicans-colonized mice given Kazachstania-supplemented drinking water; type: in vivo
Experimental: (§1) Stably fungal-colonized mice were 5×s.c injected with 225 mg kg-1 with cortisone 21-acetate, following the scheme of injection every other day as described previously (Solis and Filler, 2012). Mice were monitored for weight loss. Following sacrifice, organs and feces were collected for histological examination, flow cytometry and fungal cultivations). If the weight dropped […], mice were sacrificed according to IACUC protocol.
For enumerating the number of recoverable C. albicans and K. weizmannii colony forming units, individual fecal pellets or each tissue from mice was sterilely dissected, weighed, and homogenized in sterile DDW. Serial dilutions on the organ homogenate were spread onto YPD media plates and the number of individual colonies enumerated after incubation at 37° C. for 24 hours.
(§2) Mice were euthanized and intestines, kidneys and tongue were excised and fixed overnight in 4% paraformaldehyde at 4° C. Paraffin embedding and sectioning was performed by the institutional histology unit. For immunohistochemistry of gut samples, slides were deparaffinized by 2 washes of Xylene followed by 100%, 96%, 70% EtOH and three washes with PBS. Slides were incubated for 30 minutes in 1% hydrogen peroxide in PBS at room temperature in the dark. After washing three times in PBS, slides were boiled for 10 minutes in Citric acid buffer pH 6.0 (10 mM citric acid and 0.05% Tween-20 in DDW), then washed with PBS three times. Next, slides were blocked in BP buffer (0.3% Triton X-100, 2% horse serum and 1% bovine serum albumin in PBS) for 1 h, then incubated overnight at 4° C. with a 1:200 dilution of the primary antibody (anti-Candida) in BP buffer. […] For histopathology of typical tongue or kidney fungal lesions in the mouse model of immunosuppression, paraffin sections were stained with periodic acid-Schiff (PAS) or H&E and slides were captured using a Panoramic SCAN II (3DHISTECH) and analyzed using CaseViewer software (3DHISTECH).

CD4+ T cells in PBMCs = test: Antigen-reactive T cell enrichment (ARTE); type: cell-based, human; details: peripheral blood of healthy individuals, 40 μg/ml fungal lysates
Experimental: PBMCs were freshly isolated from EDTA blood samples on the day of blood donation by density gradient centrifugation (Biocoll; Biochrom, Berlin, Germany). Antigen-reactive T cell enrichment (ARTE) was performed as follows. Briefly, 2×10e^7 PBMCs were plated in RPMI-1640 medium (GIBCO), supplemented with 5% (v/v) human AB-serum (Sigma Aldrich, Schnelldorf, Germany) at a cell density of 1×10e^7 PBMCs/2 cm^2 in cell culture plates and stimulated with 40 μg/ml fungal lysates for 7 hr in presence of 1 μg/ml CD40 and 1 μg/ml CD28 pure antibody (both Miltenyi Biotec, Bergisch Gladbach, Germany). 1 μg/ml Brefeldin A (Sigma Aldrich) was added for the last 2 hr. Cells were labeled with CD154-Biotin followed by anti-Biotin MicroBeads (CD154 MicroBead Kit; Miltenyi Biotec) and magnetically enriched by two sequential MS columns (Miltenyi Biotec). Surface staining was performed on the first column, followed by fixation, permeabilization (Inside stain Kit, Miltenyi Biotec) and intracellular staining on the second column. […]
Frequencies of antigen-specific T cells were determined based on the total cell count of CD154+ T cells after enrichment, normalized to the total number of CD4+ T cells applied on the column. […]

[1] = Fungal-mediated pathology in cortisone 21-acetate immunosuppressed colonized mice; type: in vivo; details: cortisone 21-acetate 225 mg/kg s.c. every other day
Experimental: as §1
as §2, with “times.” for “times. Next, slides were blocked in BP buffer (0.3% Triton X-100, 2% horse serum and 1% bovine serum albumin in PBS) for 1 h, then incubated overnight at 4° C. with a 1:200 dilution of the primary antibody (anti-Candida) in BP buffer.”

Th17 cells = test: RORγt+ Th17 cells in mesenteric and peripheral lymph nodes of colonized mice; type: in vivo; details: 5 weeks colonization
Source text: FIGS. 4A-4F include graphs showing humoral and cellular immune responses to C. albicans and Kazachstania sp. (4A) Flow cytometric analysis of myeloid blood cell compartment of mice 4 weeks colonized with C. albicans or K. weizmannii. Neutrophils, classical and non-classical monocytes are defined as Ly6G+CD 115−, Ly6C+CD 115+, and […], respectively. N=8-21 mice, pooled from 3 independent experiments. Gating strategy, left, results, right. (4B) Flow cytometric analysis of humoral anti-fungal reactivity. Gating strategy for the determination of serum immunoglobulin binding to cultured C. albicans or K. weizmannii. (4C) Anti-C. albicans and K. weizmannii IgA and IgG serum reactivity of single-colonized animals, measured as shown in (4B). Note that most but not all animals harbor cross-reactive sera. (4D) Representative gating strategy of RORγt+ T cells (left); percentage of RORγt+ cells among TCRβ CD4+ T cells 5 weeks upon C. albicans or K. weizmannii colonization, n=3-5 mice per group, 3 independent experiments (right). […] EC damage was assessed using the LDH assay as described in (Allert et al., 2018). […]
Methods adhered to published guidelines (Cossarizza et al., 2019). Flow cytometry samples were recorded on BD LSR Fortessa 4 lasers or Cytek Aurora followed by data analysis using the FlowJo software (Treestar).

Substance: Kazachstania weizmannii [K. weizmannii]
- C. albicans in feces of colonized animals (C. albicans; Kazachstania-supplemented drinking water prior to immunosuppression): efficiently expelled C. albicans from colonized animals
- weight loss and systemic yeast spread (kidney colonization) (C. albicans; immunosuppressed C. albicans-colonized animals exposed to K. weizmannii): significantly delayed the weight loss and systemic yeast spread
- durability of protection (C. albicans; prolonged immunosuppressive treatment): not permanently protected
- polarization of fungus-reactive T cells (CD4+ T cells in PBMCs): of the Th1 type
- weight loss and fungal spread [1]: neither weight loss nor evidence of fungal spread
- Th17 cell expansion (Th17 cells): no Th17 cell expansion was observed
